The term melting point denotes the temperature, or range, at which the solid turns liquid.

A value given as a limit tells only on which side of the number the result lay.

As for `CCC(=O)c1c(-c2ccncc2)[nH]c(-c2ccncc2)c1CC` [Example 3, 4-Ethyl-3-propanoyl-2,5-di(4-pyridyl)-1H-pyrrole], the melting point lay within 209 to 211 °C.
As to `CC(=O)c1c(-c2ccncc2)[nH]c(-c2ccncc2)c1C(F)(F)F` [Example 4, 3-Acetyl-2,5-di(4-pyridyl)-4-trifluoromethyl-1H-pyrrole], the melting point fell in the range of 250 to 255 °C.
`CCC(=O)c1c(-c2ccncc2)[nH]c(-c2ccncc2)c1C` [Example 5, 4-Methyl-3-propanoyl-2,5-di(4-pyridyl)-1H-pyrrole] returned a melting point of 237 to 238 °C.
`CCCCC(=O)c1c(-c2ccncc2)[nH]c(-c2ccncc2)c1C` [Example 6, 4-Methyl-2,5-di(4-pyridyl)-3-pentanoyl-1H-pyrrole] returned a melting point of 88 to 89 °C.
As to `CC(=O)c1c(-c2ccncc2)[nH]c(-c2ccncc2)c1-c1ccccc1` [Example 7, 3-Acetyl-4-phenyl-2,5-di(4-pyridyl)-1H-pyrrole], the melting point fell in the range of 208 to 210 °C.
Consider `CC(=O)c1c(-c2ccnc3ccccc23)[nH]c(-c2ccnc3ccccc23)c1C` [Example 8, 3-Acetyl-4-methyl-2,5-di(4-quinolyl)-1H-pyrrole], for which the melting point is over 260 °C.
Under `CC(=O)c1c(-c2ccncc2)[nH]c(-c2ccnc3ccccc23)c1C` [Example 9, 3-Acetyl-4-methyl-2-(4-pyridyl)-5-(4-quinolyl)-1H-pyrrole] stands 237 to 239 °C; under `CCOC(=O)c1c(-c2ccncc2)[nH]c(-c2ccncc2)c1CC` [Example 10, 3-Ethoxycarbonyl-4-ethyl-2,5-di(4-pyridyl)-1H-pyrrole], 212 to 215 °C.
Regarding `CCOC(=O)c1c(-c2ccncc2)[nH]c(-c2ccncc2)c1C` [Example 11, 3-Ethoxycarbonyl-4-methyl-2,5-di(4-pyridyl)-1H-pyrrole], the melting point was in the range of 206 to 208 °C.
Take `Cc1c(-c2ccncc2)[nH]c(-c2ccncc2)c1C(=O)OCc1ccccc1` [Example 13, 3-Benzyloxycarbonyl-4-methyl-2,5-di(4-pyridyl)-1H-pyrrole]: the melting point was in the range of 204 to 205 °C.
Under `C=CCOC(=O)c1c(-c2ccncc2)[nH]c(-c2ccncc2)c1C` [Example 14, 3-Allyloxycarbonyl-4-methyl-2,5-di(4-pyridyl)-1H-pyrrole] stands 224 to 224.5 °C; under `Cc1c(-c2ccncc2)[nH]c(-c2ccncc2)c1C(=O)OC(C)C` [Example 15, 4-Methyl-3-(1-methylethoxy)carbonyl-2,5-di(4-pyridyl)-1H-pyrrole], 218 to 221 °C; under `Cc1c(-c2ccncc2)[nH]c(-c2ccncc2)c1C(=O)OC(C)(C)C` [Example 16, 4-Methyl-3-(1,1-dimethylethoxy)carbonyl-2,5-di(4-pyridyl)-1H-pyrrole], 265 to 267 °C.
Consider `CCCOC(=O)c1c(-c2ccncc2)[nH]c(-c2ccncc2)c1C` [Example 17, 4-Methyl-3-propoxycarbonyl-2,5-di(4-pyridyl)-1H-pyrrole], for which the melting point was 215 to 218 °C.
`CCOC(=O)c1c(-c2ccncc2)[nH]c(-c2ccncc2)c1-c1ccccc1` [Example 18, 3-Ethoxycarbonyl-4-phenyl-2,5-di(4-pyridyl)-1H-pyrrole] had a melting point of 99 to 100 °C.
As to `CCCCOC(=O)c1c(-c2ccncc2)[nH]c(-c2ccncc2)c1C` [Example 19, 3-Butoxycarbonyl-4-methyl-2,5-di(4-pyridyl)-1H-pyrrole], the melting point lay within 182 to 186 °C.
Under `COCCOC(=O)c1c(-c2ccncc2)[nH]c(-c2ccncc2)c1C` [Example 20, 3-(2-Methoxyethoxy)carbonyl-4-methyl-2,5-di(4-pyridyl)-1H-pyrrole] stands 174 to 177 °C; under `COCc1c(-c2ccncc2)[nH]c(-c2ccncc2)c1C(=O)OC` [Example 24, 3-Methoxycarbonyl-4-methoxymethyl-2,5-di(4-pyridyl)-1H-pyrrole], 97 to 99 °C.
